Assay results published in patent US20200256869A1, “SYSTEMS AND METHODS FOR THE ASSESSMENT OF G-PROTEIN ACTIVATION” (UNIVERSITÉ DE MONTRÉAL, priority 2017, published 2020).

Legend:
Format in all cases: cell-based
D3R = target: T1, D3R (Homo sapiens, UniProt P35462); assay: Gz activation by D3R, Rap1GAP (SSS-AAA)-RlucII translocation to PM (BRET)
T1 construct: expressed in transfected cells; host or cells: HEK293
Description: (§1) Cells were then directly seeded in 96-well plates pre-treated or not with poly-L-ornithine hydrobromide at a density of 35 000 cells per well. All experiments read in the Spark 10M reader were performed using non-treated plates.
(§2) BRET measurements 48-hours post transfection, cells were washed twice with pre-warmed Tyrode's buffer (140 mM NaCl, 2.7 mM KCl, 1 mM CaCl2, 12 mM NaHCO3, 5.6 mM D-glucose, 0.5 mM MgCl2, 0.37 mM NaH2PO4, 25 mM HEPES, pH 7.4) before being stimulated with various concentrations of ligands at either room temperature (RT) or 37° C., as indicated. The cell-permeable substrate, coelenterazine Purple I was added at a final concentration of 1 μM in Tyrode's buffer for at least 6 min (at 37° C.) to 10min (at RT) before BRET measurements.
(§3) Data Analysis. Estimation of the EC50 values were calculated using the GraphPad® Prism curve fitting program. The curves presented throughout this study, representing the best fits, and were also generated using this GraphPad® Prism program.

[1] = target: T2, Dopamine D4 receptor (D4R) (Homo sapiens, UniProt P21917); conditions: HEK293, Rap1GAP (SSS-AAA)-RlucII, rGFP-CAAX, Gz, read-out: EC50, Gz activation
T2 construct: signal peptide […]; host or cells: HEK293
T2 sequence (P21917 1-419): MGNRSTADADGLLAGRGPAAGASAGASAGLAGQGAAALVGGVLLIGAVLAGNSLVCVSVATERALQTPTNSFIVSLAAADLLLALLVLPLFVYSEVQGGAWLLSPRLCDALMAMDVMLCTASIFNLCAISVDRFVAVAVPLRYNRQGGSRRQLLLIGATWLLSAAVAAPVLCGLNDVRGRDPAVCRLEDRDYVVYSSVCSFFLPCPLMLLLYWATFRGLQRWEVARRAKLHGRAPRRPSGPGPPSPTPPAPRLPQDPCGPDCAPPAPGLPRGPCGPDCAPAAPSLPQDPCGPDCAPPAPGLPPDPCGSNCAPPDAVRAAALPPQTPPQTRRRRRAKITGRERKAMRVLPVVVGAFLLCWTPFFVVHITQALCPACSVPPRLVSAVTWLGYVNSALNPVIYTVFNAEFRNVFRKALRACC
Description: as §1, §2, §3

[2] = target: T3, thromboxane receptor (TPαR) (Homo sapiens, UniProt P21731); assay: TPαR-mediated G12 activation at the PM, PDZRG-RlucII BRET
T3 construct: host or cells: HEK293
T3 sequence (P21731 1-343): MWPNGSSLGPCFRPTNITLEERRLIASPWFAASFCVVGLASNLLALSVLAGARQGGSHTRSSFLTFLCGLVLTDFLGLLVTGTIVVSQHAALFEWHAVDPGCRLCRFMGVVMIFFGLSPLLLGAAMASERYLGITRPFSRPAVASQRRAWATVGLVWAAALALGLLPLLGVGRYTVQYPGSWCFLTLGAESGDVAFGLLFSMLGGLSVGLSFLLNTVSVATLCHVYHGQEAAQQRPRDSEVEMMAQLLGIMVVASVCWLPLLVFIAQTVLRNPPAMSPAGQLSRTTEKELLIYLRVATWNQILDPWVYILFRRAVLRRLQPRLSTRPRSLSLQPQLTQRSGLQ
Source text: (§4) FIGS. 4D and 4E show DRCs of TPαR ligands on G12 (FIG. 4D) and 13 (FIG. 4E) activation at the PM using PDZRG-Rlucll. HEK293 cells cotransfected with thromboxane receptor (TPαR), PDZRG-Rlucll, rGFP-CAAX were stimulated with known full agonists (U46619, I-BOP, CTA2), with a partial agonist (U51605) and the antagonists I-SAP and SQ 29,558. Results were normalized and presented as % of I-BOP response (n=4) +/−SEM.
(§5) Transfection using Poly(ethylenimine) (PEI): Two days before the experiments, HEK293 cells were washed with PBS containing no calcium or magnesium, detached and transfected with the indicated plasmids using PEI as a transfecting agent (at a ratio of 3 to 1, PEI/DNA). Cells were then directly seeded in 96-well plates pre-treated or not with poly-L-ornithine hydrobromide at a density of 35 000 cells per well. All experiments read in the Spark 10M reader were performed using non-treated plates.
(§6) BRET measurements 48-hours post transfection, cells were washed twice with pre-warmed Tyrode's buffer (140 mM NaCl, 2.7 mM KCl, 1 mM CaCl2, 12 mM NaHCO3, 5.6 mM D-glucose, 0.5 mM MgCl2, 0.37 mM NaH2PO4, 25 mM HEPES, pH 7.4) before being stimulated with various concentrations of ligands at either room temperature (RT) or 37° C., as indicated. The cell-permeable substrate, coelenterazine Purple I was added at a final concentration of 1 μM in Tyrode's buffer for at least 6 min (at 37° C.) to 10min (at RT) before BRET measurements. Measurements were either taken on a Spark 10M reader (Tecan Life Sciences; donor: 360 nm/380 nm & acceptor: 505 nm/570 nm), a LB 941 multimode plate reader (Berthold Technologies; donor: 400/470-nm and acceptor: 515/520-nm filters) or a Synergy Neo (Biotek: (donor: 400/480 nm, acceptor: 515/530 nm). The BRET signal was determined by calculating the ratio of the light intensity emitted by the rGFP (acceptor) over the light intensity emitted by the Rlucll (donor). All the BRET measurements were performed at 37° C. in the Tristar reader (FIGS. 1-2M & FIGS. 2R-7F), at RT in a Spark 10M reader (FIGS. 2N-2Q & FIGS. 8B-8S) or at RT in a Synergy Neo (FIGS. 8T-8X).

[3] = target: T3, thromboxane receptor (TPαR); assay: TPαR-mediated G13 activation at the PM, PDZRG-RlucII BRET
Source text: as §4, §5, §6

[4] = target: T3, thromboxane receptor (TPαR); assay: TPαR-mediated G12 activation at the PM, P115RG-RlucII BRET
Source text: (§7) FIGS. 5B and 5C show DRCs of TPαR ligands on G12 (FIG. 5B) and G13 (FIG. 5C) activation at the PM using P115RG-Rlucll. HEK293 cells cotransfected with thromboxane receptor (TPαR), P115RG-Rlucll, rGFP-CAAX were stimulated with U46619, I-BOP, CTA2, U51605, I-SAP and SQ 29,558. Results were normalized and presented as % of I-BOP response (n=4) +/−SEM.
as §5, §6

[5] = target: T3, thromboxane receptor (TPαR); assay: TPαR-mediated G13 activation at the PM, P115RG-RlucII BRET
Source text: as §7, §5, §6

[6] = target: T3, thromboxane receptor (TPαR); assay: TPαR-mediated Gq activation at the PM, P63RG-RlucII BRET
Source text: (§8) FIGS. 6J-6M show DRCs of TPαR ligands on Gq (FIG. 6J), G11 (FIG. 6K), G14 (FIG. 6L) and G15 (FIG. 6M) activation at the PM using P63RG-Rlucll under the optimal conditions determined in FIGS. 6B-6E. HEK293 cells cotransfected with thromboxane receptor (TPαR), P63RG-Rlucll, rGFP-CAAX were stimulated with U46619, I-BOP, CTA2, U51605, I-SAP and SQ 29,558. Results were normalized and presented as % of I-BOP response (between n=3 and n=5) +/−SEM.
as §5, §6

[7] = target: T3, thromboxane receptor (TPαR); assay: TPαR-mediated G11 activation at the PM, P63RG-RlucII BRET
Source text: as §8, §5, §6

[8] = target: T3, thromboxane receptor (TPαR); assay: TPαR-mediated G14 activation at the PM, P63RG-RlucII BRET
Source text: as §8, §5, §6

[9] = target: T3, thromboxane receptor (TPαR); assay: TPαR-mediated G15 activation at the PM, P63RG-RlucII BRET
Source text: as §8, §5, §6

D1R = target: T4, D1R (Homo sapiens, UniProt P21728); assay: Gz activation by D1R, Rap1GAP (SSS-AAA)-RlucII translocation to PM (BRET)
T4 construct: expressed in transfected cells; host or cells: HEK293
Description: as §1, §2, §3

D5R = target: T5, D5R (Homo sapiens, UniProt P21918); assay: Gz activation by D5R, Rap1GAP (SSS-AAA)-RlucII translocation to PM (BRET)
T5 construct: expressed in transfected cells; host or cells: HEK293
Description: as §1, §2, §3

D2R = target: T6, D2R (Homo sapiens, UniProt P14416); assay: Gz activation by D2R, Rap1GAP (SSS-AAA)-RlucII translocation to PM (BRET)
T6 construct: expressed in transfected cells; host or cells: HEK293
Description: as §1, §2, §3

T5 sequence (P21918 whole entry): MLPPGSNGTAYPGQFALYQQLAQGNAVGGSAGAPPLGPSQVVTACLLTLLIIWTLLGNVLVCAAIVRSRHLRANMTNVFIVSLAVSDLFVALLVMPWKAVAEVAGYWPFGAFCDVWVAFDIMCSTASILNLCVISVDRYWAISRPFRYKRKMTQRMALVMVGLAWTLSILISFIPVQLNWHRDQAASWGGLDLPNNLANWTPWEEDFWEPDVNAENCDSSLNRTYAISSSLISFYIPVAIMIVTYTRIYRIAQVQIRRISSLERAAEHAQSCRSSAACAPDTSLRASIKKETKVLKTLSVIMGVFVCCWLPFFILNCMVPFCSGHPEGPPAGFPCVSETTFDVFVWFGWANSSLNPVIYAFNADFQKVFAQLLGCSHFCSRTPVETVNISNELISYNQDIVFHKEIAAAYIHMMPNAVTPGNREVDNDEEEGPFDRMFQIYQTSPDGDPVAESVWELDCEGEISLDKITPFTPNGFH
T1 sequence (P35462 whole entry): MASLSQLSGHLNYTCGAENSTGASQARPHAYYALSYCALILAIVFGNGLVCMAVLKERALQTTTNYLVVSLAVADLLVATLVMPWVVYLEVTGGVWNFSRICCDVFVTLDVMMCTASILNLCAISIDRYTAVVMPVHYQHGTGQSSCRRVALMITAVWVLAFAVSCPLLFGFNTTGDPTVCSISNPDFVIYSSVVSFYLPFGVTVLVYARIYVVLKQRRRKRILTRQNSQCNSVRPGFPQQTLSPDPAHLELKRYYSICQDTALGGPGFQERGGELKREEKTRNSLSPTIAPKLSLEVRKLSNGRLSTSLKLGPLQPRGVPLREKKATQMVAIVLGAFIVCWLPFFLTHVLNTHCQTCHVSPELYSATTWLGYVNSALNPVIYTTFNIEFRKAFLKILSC
T4 sequence (P21728 whole entry): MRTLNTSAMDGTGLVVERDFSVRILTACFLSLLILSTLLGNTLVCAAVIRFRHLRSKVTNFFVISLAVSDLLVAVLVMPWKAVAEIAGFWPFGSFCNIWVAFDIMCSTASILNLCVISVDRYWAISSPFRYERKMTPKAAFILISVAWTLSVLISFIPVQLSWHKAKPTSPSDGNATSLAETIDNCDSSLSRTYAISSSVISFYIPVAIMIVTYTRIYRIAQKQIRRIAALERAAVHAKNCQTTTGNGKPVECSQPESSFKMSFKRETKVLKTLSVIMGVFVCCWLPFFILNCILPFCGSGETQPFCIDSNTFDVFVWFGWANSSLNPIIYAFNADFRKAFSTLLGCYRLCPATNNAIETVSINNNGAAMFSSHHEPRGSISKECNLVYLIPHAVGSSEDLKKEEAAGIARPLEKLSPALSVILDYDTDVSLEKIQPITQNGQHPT
T6 sequence (P14416 whole entry): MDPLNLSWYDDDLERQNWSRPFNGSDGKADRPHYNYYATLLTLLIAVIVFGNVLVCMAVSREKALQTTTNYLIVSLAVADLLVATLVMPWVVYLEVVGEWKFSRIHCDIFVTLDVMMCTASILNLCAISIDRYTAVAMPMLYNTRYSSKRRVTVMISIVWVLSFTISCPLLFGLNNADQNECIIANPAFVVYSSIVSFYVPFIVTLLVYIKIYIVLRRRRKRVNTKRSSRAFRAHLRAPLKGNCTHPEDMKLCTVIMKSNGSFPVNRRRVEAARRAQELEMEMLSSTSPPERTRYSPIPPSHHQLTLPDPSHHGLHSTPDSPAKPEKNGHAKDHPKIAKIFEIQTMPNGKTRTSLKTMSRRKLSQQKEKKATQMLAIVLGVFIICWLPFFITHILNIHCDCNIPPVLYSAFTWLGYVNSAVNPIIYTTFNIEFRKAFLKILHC

SMILES	EC50 (D3R; HEK293, Rap1GAP (SSS-AAA)-RlucII, rGFP-CAAX, Gz) [nM]	EC50 [1] [nM]	G12 activation, agonist character in words [2]	G13 activation, agonist character in words [3]	G12 activation, agonist character in words [4]	G13 activation, agonist character in words [5]	Gq activation, agonist character in words [6]	G11 activation, agonist character in words [7]	G14 activation, agonist character in words [8]	G15 activation, agonist character in words [9]	G13 activation, efficacy ([3]; normalized to I-BOP response)	G13 activation, efficacy ([5]; normalized to I-BOP response)	Gq activation, efficacy ([6]; rGFP-CAAX)	agonist properties (Gz activation), in words (D1R)	agonist properties (Gz activation), in words (D5R)	agonist properties (Gz activation), in words (D2R)	agonist properties (Gz activation), in words (D3R)
Cc1cccc(NC(=O)CN2CCC(c3ccccn3)CC2)c1 [A412,997]	281	0.04	–	–	–	–	–	–	–	–	–	–	–	–	–	–	–
CCCCC[C@H](O)/C=C/[C@H]1CC2CC(C2)[C@@H]1C/C=C\CCCC(=O)O [CTA2]	–	–	full agonists	full agonists	full agonists	full agonists	full agonists	full agonists	full agonists	full agonists	–	–	–	–	–	–	–
O=C(O)CCC/C=C\C[C@@H]1[C@@H](/C=C/[C@@H](O)COc2ccc(I)cc2)[C@H]2CC[C@@H]1O2 [I-BOP]	–	–	full agonists	full agonists	full agonists	full agonists	full agonists	full agonists	full agonists	full agonists	–	–	–	–	–	–	–
CC1(C)[C@@H]2C[C@H](NS(=O)(=O)c3ccc(I)cc3)[C@@H](C/C=C\CCCC(=O)O)[C@H]1C2 [I-SAP]	–	–	fails to induce significant G12 activation	–	neutral	–	fail to induce significant activation	fail to induce significant activation	fail to induce significant activation	fail to induce significant activation	53 % of Max	19 % of Max	7 % of I-BOP max response	–	–	–	–
Cc1c(C2CCN(CCc3ccccc3)CC2)noc1-c1ccc(Cl)cc1 [L741,742]	–	–	–	–	–	–	–	–	–	–	–	–	–	did not show agonist nor inverse properties	did not show agonist nor inverse properties	–	–
O=C(O)CCC/C=C\C[C@@H]1[C@H](CNNC(=O)Nc2ccccc2)[C@H]2CC[C@@H]1O2 [SQ 29,558]	–	–	not acting as a TPαR agonist	not acting as a TPαR agonist	not acting as a TPαR agonist	not acting as a TPαR agonist	fail to induce significant activation	fail to induce significant activation	fail to induce significant activation	fail to induce significant activation	–	–	–	–	–	–	–
CCCCC[C@H](O)/C=C/[C@@H]1[C@@H](C/C=C\CCCC(=O)O)[C@H]2CO[C@@H]1C2 [U46619]	–	–	full agonists	full agonists	full agonists	full agonists	full agonists	full agonists	full agonists	full agonists	–	–	–	–	–	–	–
COc1ccccc1N1CCN(CCN(C(=O)C2CCCCC2)c2ccccn2)CC1 [WAY-100635]	–	–	–	–	–	–	–	–	–	–	–	–	–	only showed agonist properties on D4R	only showed agonist properties on D4R	only showed agonist properties on D4R	only showed agonist properties on D4R
